Literature values, collected in patent US20070066584A1, “Amido compounds and their use as pharmaceuticals” (priority 2005, published 2007).

Biological target: T1, 11βHSD1 (Homo sapiens, UniProt P28845)
T1 construct: host or cells: healthy volunteers (eye; non-pigmented epithelial cells), in vivo
Conditions: healthy volunteers; after seven days of carbenoxolone treatment

T1 sequence (P28845 whole entry): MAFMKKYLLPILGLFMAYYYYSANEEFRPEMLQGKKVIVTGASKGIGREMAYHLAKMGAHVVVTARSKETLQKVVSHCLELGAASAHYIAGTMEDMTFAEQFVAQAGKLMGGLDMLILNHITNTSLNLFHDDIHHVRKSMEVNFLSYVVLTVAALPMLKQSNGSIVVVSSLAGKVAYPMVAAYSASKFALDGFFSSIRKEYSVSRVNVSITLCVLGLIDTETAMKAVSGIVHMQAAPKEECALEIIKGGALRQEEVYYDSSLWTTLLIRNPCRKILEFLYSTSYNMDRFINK

IOP reduced: 18%
Structure (SMILES): CC1(C)[C@@H](OC(=O)CCC(=O)O)CC[C@]2(C)[C@H]3C(=O)C=C4[C@@H]5C[C@@](C)(C(=O)O)CC[C@]5(C)CC[C@@]4(C)[C@]3(C)CC[C@@H]12 [carbenoxolone]
